One test has as its target PDK1 (Homo sapiens (Human), UniProt O15530). As to the kind of experiment: PDK1 kinase assay (coupled PDK1/AKT/FAM-crosstide assay, IMAP fluorescence polarization). Type of test: biochemical. The method in brief:
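GST-tagged PDK1 (aa 51-359, 0.75 nM) was coupled to unphosphorylated GST-AKT2 140-467-PIFtide (10 nM) and 100 nM FAM-crosstide at 40 μM ATP, in Tris pH 7.2 buffer, for 30 min at 25 °C. Crosstide phosphorylation was read by IMAP fluorescence polarization (ΔmP) and fitted with a 4-parameter curve.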

For test [1], the system named is phospho-akt (Thr308) in PC-3 cells. As to the kind of experiment: Inhibition of phospho-akt (Thr308) in PC-3 cells, MSD phospho-akt 308 ELISA kit. It is filed as cell-based. As to conditions: Homo sapiens, 2 hours, no serum, read-out: EC50. The gist of the method:
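Read-out is MSD electrochemiluminescence of Akt phosphorylated at Thr308 in lysates of PC-3 cells treated 2 h with compound in serum-free medium. Wortmannin at 5 μM defined the low control and DMSO the high control.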
(An ELISA detects its analyte on a solid surface through an enzyme-linked reagent.)

Where [2] appears, read: inhibition of phospo-PDK1 in vitro.
Setting [3] is: inhibition of P308 Akt in PC-3 cells, MSD.
Setting [4] is: inhibition of P308 Akt in PC-3 cells using MSD.

Structures can show the parent of a compound that is named as a salt. Where two headings read alike, the source gives them in different places.

Chain of PDK1 (O15530 51-359): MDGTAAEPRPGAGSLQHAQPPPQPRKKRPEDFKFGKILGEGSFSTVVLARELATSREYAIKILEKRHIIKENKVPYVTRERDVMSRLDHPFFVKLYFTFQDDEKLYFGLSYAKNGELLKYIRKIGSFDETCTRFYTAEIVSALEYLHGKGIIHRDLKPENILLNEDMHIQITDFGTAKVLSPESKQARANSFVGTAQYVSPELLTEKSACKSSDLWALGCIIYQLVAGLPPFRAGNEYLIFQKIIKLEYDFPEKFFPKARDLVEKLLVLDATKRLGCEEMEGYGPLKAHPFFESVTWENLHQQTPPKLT

With `C[C@H](NC(=O)c1cc(C#N)cnc1NC/C=C/c1ccc2c(c1)NC(=O)C2)c1ccc(F)cc1` [Example 15.3, (S,E)-5-cyano-N-(1-(4-fluorophenyl)ethyl)-2-(3-(2-oxoindolin-6-yl)allylamino)nicotinamide], the IC50 (in general, the midpoint of a concentration-inhibition curve) at PDK1 (setting [2]) is over 5 µM. For the same compound, the EC50 (commonly the concentration needed to bring the measured effect to its halfway point) in test [1] (setting [3]) was over 10 µM.
For the compound `CC(Nc1ncccc1C(=O)NCc1ccc(F)c(F)c1)c1ccc(-c2ccc3ncnc(N)c3c2)s1` (centres unmarked) [Ex. 7.2], the IC50 against PDK1 (setting [2]) is 0.1 to 1 µM. In test [1] (PC-3, 2 h, inhibition of P308 Akt in PC-3 cells, MSD), the EC50 lay within 1 to 10 µM.
The compound `C[C@H](NC(=O)c1nc(C#N)cnc1NCc1ccc(-c2cnc(N)c(O[C@@H]3CCC[C@H]3N)n2)cc1)c1ccc(F)c(F)c1` [Example 172, 3-{4-[5-Amino-6-((1R,2R)-2-amino-cyclopentyloxy)-pyrazin-2-yl]-benzylamino}-6-cyano-pyrazine-2-carboxylic acid [(S)-1-(3,4-difluoro-phenyl)-ethyl]-amide] had an IC50 at PDK1 (inhibition of PDK1 in vitro) of under 0.1 µM. The EC50 in test [1] (setting [4]) was 1 to 10 µM.
Turning to `C[C@H](NC(=O)c1cc(C#N)cnc1NCc1ccc(-c2ccc3n[nH]c(=O)n3c2)cc1)c1ccc(F)cc1` [Example 145, (S)-5-cyano-N-(1-(4-fluorophenyl)ethyl)-2-(4-(3-oxo-2,3-dihydro-[1,2,4]triazolo[4,3-a]pyridin-6-yl)benzyl-amino)nicotinamide], at PDK1 (inhibition of PDK1 in vitro), the half-maximal inhibitory concentration (IC50) is over 5 µM. Also, the EC50 in test [1] (setting [4]) was over 10 µM.
For `CNc1ncc2cc(O[C@H](C)CNc3ncc(C#N)cc3C(=O)N[C@@H](C)c3ccc(F)cc3)ccc2n1` [Example 251, 5-cyano-N-((S)-1-(4-fluorophenyl)ethyl)-2-((R)-2-(2-(methylamino)quinazolin-6-yloxy)propylamino)nicotinamide], the IC50 against PDK1 (inhibition of PDK1 in vitro) was over 5 µM. Moreover, in test [1] (setting [4]), the EC50 fell in the range of 1 to 10 µM.
For `C[C@H](NC(=O)c1nccnc1NCc1ccc(-c2cc3c(N)ncnc3cn2)s1)c1ccc(F)c(F)c1` [Example 3.78, 3-({[5-(4-aminopyrido[3,4-d]pyrimidin-6-yl)thiophen-2-yl]methyl}amino)-N-[(1S)-1-(3,4-difluorophenyl)ethyl] pyrazine-2-carboxamide (TFA salt)], the IC50 at PDK1 (setting [2]) was in the range of 0.1 to 1 µM. Also, the concentration for a half-maximal effect (EC50) in test [1] (setting [3]) was under 1 µM.
`COCCNC(=O)c1c(C)[nH]c(/C=C2\C(=O)Nc3cc(/C=C/CNc4ncccc4C(=O)NCc4ccc(F)c(F)c4)ccc32)c1C` [Example 15.19, N-(3,4-difluorobenzyl)-2-((E)-3-((Z)-3-((4-(2-methoxyethylcarbamoyl)-3,5-dimethyl-1H-pyrrol-2-yl]-methylene)-2-oxoindolin-6-yl)allylamino) nicotinamide] displayed an IC50 against PDK1 (setting [2]) of under 0.1 µM. Moreover, the EC50 in test [1] (setting [3]) was under 1 µM.
The like results for `CC(C)[C@H](NC(=O)c1cccnc1NCc1ccc(-c2ccc3ncnc(N)c3c2)s1)c1ccc(F)cc1` [Example 3.45, (S)-2-((5-(4-aminoquinazolin-6-yl)thiophen-2-yl)methylamino)-N-(1-(4-fluorophenyl)-2-methylpropyl)nicotinamide (TFA salt)] were, in that order, 0.1 to 1 µM and 1 to 10 µM.
On the same counts, the results for `C[C@@H](NC(=O)c1cccnc1NCc1ccc(-c2ccc3ncnc(N)c3c2)s1)c1ccc(F)cc1` [Example 3.14, 2-({[5-(4-aminoquinazolin-6-yl)thiophen-2-yl]methyl}amino)-N-[(1R)-1-{4-fluorophenyl)ethyl]pyridine-3-carboxamide (TFA salt)] are over 5 µM and over 10 µM.
Turning to `C[C@H](NC(=O)c1cc(C#N)cnc1NCc1ccc(-c2cnc(N)c(C(=O)NCCN3CCOCC3)n2)cc1)c1ccc(F)cc1` [Example 214, (S)-3-amino-6-(4-((5-cyano-3-(1-(4-fluorophenyl)ethylcarbamoyl)pyridin-2-ylamino)methyl)phenyl)-N-(2-morpholinoethyl) pyrazine-2-carboxamide], the IC50 on PDK1 (inhibition of PDK1 in vitro) is under 0.1 µM. In addition, the EC50 in test [1] (setting [4]) was under 1 µM.
The like results for `Nc1ncnn2c(-c3ccc(CNc4ncc(C(F)(F)F)cc4C(=O)NCc4ccc(F)c(F)c4)cc3)ccc12` [Example 179, 2-[4-(4-Amino-pyrrolo [2,1-f][1,2,4]triazin-7-yl)-benzylamino]-N-(3,4-difluoro-benzyl)-5-trifluoromethyl-nicotinamide] were, in that order, 0.1 to 1 µM and 1 to 10 µM.
The like results for `C[C@H](NC(=O)c1nc(C#N)cnc1NCc1ccc(-c2cnc(NCCO)cn2)cc1)c1ccc(F)c(F)c1` [Example 230, 6-Cyano-3-{4-[5-(2-hydroxy-ethylamino)-pyrazin-2-yl]-benzylamino}-pyrazine-2-carboxylic acid [(S)-1-(3,4-difluoro-phenyl)-ethyl]-amide] were, in that order, under 0.1 µM and 1 to 10 µM.
In turn, `CNC(=O)c1cccnc1NCc1cccc(-c2c[nH]c3ncccc23)c1` [Example 1.15, N-methyl-2-{[3-(1H-pyrrolo [2,3-b]pyridin-3-yl)benzyl]amino}pyridine-3-carboxamide] came in with an IC50 at PDK1 (setting [2]) of over 5 µM. In test [1] (setting [3]), the EC50 is over 10 µM.
The like results for `Nc1ncnc2ccc(-c3ccc(CNc4ncc(Br)cc4C(=O)NCc4ccc(F)c(F)c4)s3)cc12` [Ex. 8.9, 2-({[5-(4-aminoquinazolin-6-yl)thiophen-2-yl]methyl}amino)-N-(3,4-difluorobenzyl)-5-bromopyridine-3-carboxamide] were, in that order, under 0.1 µM and under 1 µM.
On PDK1 (setting [2]), `C[C@H](NC(=O)c1cccnc1NCCOc1ccc2c(c1)NC(=O)/C2=C\c1cnc[nH]1)c1ccc(F)c(F)c1` [Example 19.2, (S,Z)-2-(2-(3-((1H-imidazol-5-yl)methylene)-2-oxoindolin-6-yloxy)ethylamino)-N-(1-(3,4-difluorophenyl)ethyl)nicotinamide] registered an IC50 of under 0.1 µM. Further, in test [1] (setting [3]), the EC50 is under 1 µM.
With `Nc1ncnc2ccc(-c3ccc(CNc4ncc(C5COC5)cc4C(=O)NCc4ccc(F)c(F)c4)s3)cc12` [Ex. 8.8.4, 2-((5-(4-aminoquinazolin-6-yl)thiophen-2-yl)methylamino)-N-(3,4-difluorobenzyl)-5-(oxetan-3-yl)nicotinamide], at PDK1 (setting [2]), the IC50 was under 0.1 µM. The 50% effective concentration (EC50) in test [1] (setting [3]) was under 1 µM.
Consider `C[C@H](NC(=O)c1nc(C#N)cnc1NCc1ccc(-c2cnc(N)c(-c3cccc(N)c3)n2)cc1)c1ccc(F)c(F)c1` [Example 238, 3-{4-[5-Amino-6-(3-amino-phenyl)-pyrazin-2-yl]-benzylamino}-6-cyano-pyrazine-2-carboxylic acid [(S)-1-(3,4-difluoro-phenyl)-ethyl]-amide], for which the IC50 on PDK1 (inhibition of PDK1 in vitro) is under 0.1 µM. Further, in test [1] (setting [4]), the EC50 is under 1 µM.
On the same counts, the results for `Nc1ncc(-c2ccc(CNc3ncc(C(F)(F)F)cc3C(=O)Nc3ccc(F)cc3)cc2)nc1O[C@H]1CCC[C@@H]1N` [Example 170, 2-{4-[5-Amino-6-((1S,2S)-2-amino-cyclopentyloxy)-pyrazin-2-yl]-benzylamino}-N-(4-fluoro-phenyl)-5-trifluoromethyl-nicotinamide] are under 0.1 µM and 1 to 10 µM.
The compound `C[C@H](NC(=O)c1cc(C#N)cnc1NCc1ccc(-c2cnc(N)c(CCCCN3CCOCC3)n2)cc1)c1ccc(F)cc1` [Example 89, 2-{4-[5-Amino-6-(4-morpholin-4-yl-butyl)-pyrazin-2-yl]-benzyl-amino}-5-cyano-N-[(S)-1-(4-fluoro-phenyl)-ethyl]-nicotinamide] showed an IC50 against PDK1 (inhibition of PDK1 in vitro) of under 0.1 µM. Further, in test [1] (setting [4]), the EC50 is under 1 µM.

The values are drawn from US10030016B2 (Sunesis Pharmaceuticals, Inc., priority 2009, dated 2018).
